The test concerns the target PRS (prolyl-tRNA synthetase) protein, PRS portion of EPRS (Homo sapiens (Human), UniProt P07814). Nature of the test: PRS enzyme activity inhibition experiment ([3H]proline, liquid scintillation). The format is biochemical. The note with it: purified PRS protein, 37° C. for 5 to 10 minutes. How it is done:
In order to confirm the biological activities of the compounds prepared in Examples, % inhibition or IC50 values of PRS enzyme ([…]) activities were calculated.
Specifically, the portion corresponding to PRS in cDNA of EPRS was subcloned, and the obtained high-purity PRS protein was purified and used in the experiment. The compounds (1 μM) prepared in Examples were added into the reaction buffer (20 mM KPO4 (pH 7.4), 6 mM MgAc, 5 mM ATP, […] tRNA, 0.5 mM DTT, […][^3H]proline (1 mCi/mL)) and allowed to react at 37° C. for 5 to 10 minutes. The reaction was terminated with 3M paper that was in advance dried by addition of 5% TCA. The radioactivity was measured using a liquid scintillation counter.
% Inhibition and IC50 values of the respective compounds were calculated and analyzed using Microsoft Excel or Sigma Plot 8.0. In Tables 1 to 3, the results are divided into A, B and C according to the range of IC50. The case where the derived IC50 is 100 nM or less is represented by “A”, the case where the IC50 is 100 to 500 nM is represented by “B”, and the case where the IC50 is 500 nM or higher is represented by “C”.
Sequence of PRS (prolyl-tRNA synthetase) protein, PRS portion of EPRS (P07814 1007-1512): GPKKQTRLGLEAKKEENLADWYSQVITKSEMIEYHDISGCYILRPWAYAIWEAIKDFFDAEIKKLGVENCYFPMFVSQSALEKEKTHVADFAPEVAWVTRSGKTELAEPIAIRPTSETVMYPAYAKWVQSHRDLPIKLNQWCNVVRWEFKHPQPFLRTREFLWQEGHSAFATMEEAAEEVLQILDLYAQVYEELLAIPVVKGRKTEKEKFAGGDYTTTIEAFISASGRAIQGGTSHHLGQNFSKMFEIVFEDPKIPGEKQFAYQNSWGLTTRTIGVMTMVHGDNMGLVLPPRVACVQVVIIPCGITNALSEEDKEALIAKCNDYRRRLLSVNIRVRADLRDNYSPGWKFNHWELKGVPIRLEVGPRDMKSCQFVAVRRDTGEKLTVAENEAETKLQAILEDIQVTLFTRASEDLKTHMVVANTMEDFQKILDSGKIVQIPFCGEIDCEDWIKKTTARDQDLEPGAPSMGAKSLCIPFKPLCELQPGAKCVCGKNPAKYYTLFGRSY
Compound `O[C@H]1CCCN[C@@H]1CCCn1cnc2ccc(Cl)cc21` [Example 1, (2R,3S)-2-(3-(6-chloro-1H-benzo[d]imidazol-1-yl)propyl)piperidin-3-ol] gave an IC50 of 100 to 500 nM.

In turn, `O[C@H]1CCCN[C@@H]1CCCn1cnc2c(Br)cccc21` [Example 2, (2R,3S)-2-(3-(4-bromo-1H-benzo[d]imidazol-1-yl)propyl)piperidin-3-ol] gave an IC50 of 100 to 500 nM.

For the compound `O[C@H]1CCCN[C@@H]1CCCn1cnc2cc(Br)ccc21` [Example 3, (2R,3S)-2-(3-(5-bromo-1H-benzo[d]imidazol-1-yl)propyl)piperidin-3-ol], the concentration for half-maximal inhibition (IC50) was at least 500 nM.

`O[C@H]1CCCN[C@@H]1CCCn1cnc2ccc(Br)cc21` [Example 4, (2R,3S)-2-(3-(6-bromo-1H-benzo[d]imidazol-1-yl)propyl)piperidin-3-ol] came in with an IC50 of 100 to 500 nM.

Turning to `O[C@H]1CCCN[C@@H]1CCCn1cnc2cccc(Br)c21` [Example 5, (2R,3S)-2-(3-(7-bromo-1H-benzo[d]imidazol-1-yl)propyl)piperidin-3-ol], the IC50 was 100 to 500 nM.

In turn, `O[C@H]1CCCN[C@@H]1CCCn1cnc2c(F)cccc21` [Example 6, (2R,3S)-2-(3-(4-fluoro-1H-benzo[d]imidazol-1-yl)propyl)piperidin-3-ol] yielded an IC50 of at least 500 nM.

As to `O[C@H]1CCCN[C@@H]1CCCn1cnc2cc(F)ccc21` [Example 7, (2R,3S)-2-(3-(5-fluoro-1H-benzo[d]imidazol-1-yl)propyl)piperidin-3-ol], the IC50 was 100 to 500 nM.

On to `O[C@H]1CCCN[C@@H]1CCCn1cnc2ccc(F)cc21` [Example 8, (2R,3S)-2-(3-(6-fluoro-1H-benzo[d]imidazol-1-yl)propyl)piperidin-3-ol], for which the IC50 is at least 500 nM.

Take `O[C@H]1CCCN[C@@H]1CCCn1cnc2cccc(F)c21` [Example 9, (2R,3S)-2-(3-(7-fluoro-1H-benzo[d]imidazol-1-yl)propyl)piperidin-3-ol]: the IC50 is at least 500 nM.

`O[C@H]1CCCN[C@@H]1CCCn1cnc2c(Cl)cccc21` [Example 10, (2R,3S)-2-(3-(4-chloro-1H-benzo[d]imidazol-1-yl)propyl)piperidin-3-ol] registered an IC50 of 100 to 500 nM.

`O[C@H]1CCCN[C@@H]1CCCn1cnc2cc(Cl)ccc21` [Example 11, (2R,3S)-2-(3-(5-chloro-1H-benzo[d]imidazol-1-yl)propyl)piperidin-3-ol]: the IC50 fell in the range of 100 to 500 nM.

Regarding `O[C@H]1CCCN[C@@H]1CCCn1cnc2cccc(Cl)c21` [Example 12, (2R,3S)-2-(3-(7-chloro-1H-benzo[d]imidazol-1-yl)propyl)piperidin-3-ol], the IC50 is 100 to 500 nM.

`Cc1ccc2ncn(CCC[C@H]3NCCC[C@@H]3O)c2c1` [Example 13, (2R,3S)-2-(3-(6-methyl-1H-benzo[d]imidazol-1-yl)propyl)piperidin-3-ol] yielded an IC50 of at least 500 nM.

On to `Cc1ccc2c(c1)ncn2CCC[C@H]1NCCC[C@@H]1O` [Example 14, (2R,3S)-2-(3-(5-methyl-1H-benzo[d]imidazol-1-yl)propyl)piperidin-3-ol], for which the IC50 is at least 500 nM.

Turning to `O[C@H]1CCCN[C@@H]1CCCn1cnc2ccc(C(F)(F)F)cc21` [Example 15, (2R,3S)-2-(3-(6-(trifluoromethyl)-1H-benzo[d]imidazol-1-yl)propyl)piperidin-3-ol], the half-maximal inhibitory concentration (IC50) lay in the range of 100 to 500 nM.

On to `O[C@H]1CCCN[C@@H]1CCCn1cnc2cccc(C(F)(F)F)c21` [Example 16, (2R,3S)-2-(3-(7-(trifluoromethyl)-1H-benzo[d]imidazol-1-yl)propyl)piperidin-3-ol], for which the IC50 was 100 to 500 nM.

With `O[C@H]1CCCN[C@@H]1CCCn1cnc2cccc(OC(F)(F)F)c21` [Example 17, (2R,3S)-2-(3-(7-(trifluoromethoxy)-1H-benzo[d]imidazol-1-yl)propyl)piperidin-3-ol], the IC50 was at least 500 nM.

Turning to `O[C@H]1CCCN[C@@H]1CCCn1cnc2c(N3CCCC3)cccc21` [Example 18, (2R,3S)-2-(3-(4-(pyrrolidin-1-yl)-1H-benzo[d]imidazol-1-yl)propyl)piperidin-3-ol], the IC50 was at least 500 nM.

The IC50 is the concentration that inhibits the measured activity by half.

Values taken from patent publication US10981917B2, “Heterocyclic compound, its preparation method, and pharmaceutical composition comprising the same” (Daewoong Pharmaceutical Co., Ltd., priority 2017, dated 2021).
